Experimental data reported in patent publication US12521403B2, “Compositions for the treatment of chronic vulval and perineal pain and symptoms and conditions associated therewith” (TA Pharma Pty Limited, priority 2016, dated 2026).
Where a name gives a salt, the structure may show the parent alone. Read-outs that look alike come from different tables or passages of the source.

Legend:
[1] = cited from earlier work
[2] = Dissolution of estriol in solvents for the organic phase of the organogel; format: physicochemical; settings: propylene glycol alone
Procedure: The ratio of propylene glycol to LIP was 4:10. For the aqueous phase, amitriptyline HCL was dissolved in water, then PLURONIC® F-127 was added to give a 20% PLURONIC® solution. The two phases were mixed using a syringe to syringe transfer method which produce a relatively high shear mixing. The ratio of organic to aqueous phases was 1:2. This produced a stable organogel with final concentrations of 300 mcg/g estriol and 0.5% w/w amitriptyline. Stability may be increased by the addition of potassium sorbate.
To increase the dissolution of the estriol in the organic phase, and thereby improve bioavailability, a combination of solubiliser (diethylene glycol monoethyl ether) and propylene glycol was employed. […] This was then blended with the LIP to produce the organic phase.

dissolution in propylene glycol [2]	Compound	solubility in water ([1]; water) [mg per litre]	solubility in water ([1]; at pH 1.2) [mg/mL]	solubility in water ([1]; at pH 6.8) [mg/mL]
did not produce a clear solution	C[C@]12CC[C@@H]3c4ccc(O)cc4CC[C@H]3[C@@H]1C[C@@H](O)[C@@H]2O [Estriol]	27	–	–
–	CN(C)CCC=C1c2ccccc2CCc2ccccc21 [Amitriptyline HCL]	–	1000	0.9
